We go through 3 molecules from ChEMBL document CHEMBL4002601, “A triple exon-skipping luciferase reporter assay identifies a new CLK inhibitor pharmacophore” (Bioorg Med Chem Lett, 2017).

In test [1] the target is PI3-kinase p110-alpha/p85-alpha (Homo sapiens) (UniProt P27986+P42336). Description: Inhibition of human PI3K p110alpha/pI3K p85alpha at 1 uM using PIP2 as substrate in presence of biotinylated PIP3 and ATP and measured after 30 mins by HTRF method. Format: protein-complex assay. In general terms: TR-FRET usually uses a lanthanide donor and a delayed reading to cut background.

For test [2], the target named is Mitogen-activated protein kinase 9 (Homo sapiens) (UniProt P45984). Briefly: Inhibition of human JNK2alpha2 using ATF2 as substrate in presence of [gamma-33P]ATP at 1 uM after 40 mins by scintillation counter method.
For another test, the target named is CDK6/cyclin D3 (Homo sapiens, UniProt Q00534). Briefly: Inhibition of human CDK6/cyclinD3 using Histone H1 as substrate in presence of [gamma-33P]ATP after 40 mins by scintillation counter method. Format: protein-complex assay.
Test [3] addresses ALK tyrosine kinase receptor (Homo sapiens) (UniProt Q9UM73). Description: Inhibition of human ALK using casein as substrate in presence of [gamma-33P]ATP at 1 uM after 40 mins by scintillation counter method.
Test [4] addresses Serine/threonine-protein kinase B-raf (Homo sapiens) (UniProt P15056). Briefly: Inhibition of human BRAF using myelin basic protein as substrate in presence of [gamma-33P]ATP at 1 uM after 40 mins by scintillation counter method.
In test [5] the target is Cyclin-dependent kinase 1/cyclin B1 (Homo sapiens, UniProt P06493). Briefly: Inhibition of human CDK1/cyclinB using Histone H1 as substrate in presence of [gamma-33P]ATP after 40 mins by scintillation counter method. It counts as protein-complex assay.
Test [6] concerns the target Receptor tyrosine-protein kinase erbB-2 (Homo sapiens) (UniProt P04626). Briefly: Inhibition of human ErbB2 using poly(Glu, Tyr) as substrate in presence of [gamma-33P]ATP at 1 uM after 40 mins by scintillation counter method.
Test [7] concerns the target T1, Dual specificity protein kinase CLK1 (Homo sapiens, UniProt P49759). Briefly: Inhibition of CLK mediated SF3B1 activation in human SK-MEL-2 cells assessed as MDM2-pre mRNA exon skipping after 4 hrs by luciferase reporter gene assay relative to control. It counts as cell-based. The conditions noted are these: read-out: EC50. For orientation: A reporter such as luciferase makes a cellular process visible.

Test [8] has as its target T1, Dual specificity protein kinase CLK1. Briefly: Inhibition of CLK mediated SF3B1 activation in human SK-MEL-2 cells assessed as MDM2-pre mRNA exon skipping at 10 uM after 4 hrs by luciferase reporter gene assay relative to control. It counts as cell-based.
Test [9] has as its target Receptor-type tyrosine-protein kinase FLT3 (Homo sapiens) (UniProt P36888). Description: Inhibition of human Flt3 using EAIYAAPFAKKK as substrate in presence of [gamma-33P]ATP at 1 uM after 40 mins by scintillation counter method.
In test [10] the target is Mitogen-activated protein kinase 8 (Homo sapiens) (UniProt P45983). Description: Inhibition of human JNK1alpha1 using ATF2 as substrate in presence of [gamma-33P]ATP at 1 uM after 40 mins by scintillation counter method.
Test [11] addresses T2, Aurora kinase A (Homo sapiens) (UniProt O14965).
T2 sequence (whole entry): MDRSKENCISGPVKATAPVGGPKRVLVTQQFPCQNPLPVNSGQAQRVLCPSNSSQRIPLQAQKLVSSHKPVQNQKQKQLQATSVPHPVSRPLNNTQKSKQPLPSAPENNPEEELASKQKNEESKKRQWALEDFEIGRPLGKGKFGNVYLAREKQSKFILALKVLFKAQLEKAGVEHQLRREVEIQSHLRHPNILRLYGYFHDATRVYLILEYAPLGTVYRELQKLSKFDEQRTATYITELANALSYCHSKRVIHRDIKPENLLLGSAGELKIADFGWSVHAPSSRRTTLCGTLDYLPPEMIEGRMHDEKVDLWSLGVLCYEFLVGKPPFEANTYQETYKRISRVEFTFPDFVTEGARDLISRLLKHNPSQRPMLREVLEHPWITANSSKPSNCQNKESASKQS
Description: Inhibition of human Aurora-A using Kemptide as substrate in presence of [gamma-33P]ATP at 1 uM after 40 mins by scintillation counter method.

For a further test, the target named is CDK4/Cyclin D3 (Homo sapiens, UniProt P11802). Description: Inhibition of human CDK4/cyclinD3 using Histone H1 as substrate in presence of [gamma-33P]ATP after 40 mins by scintillation counter method. It counts as protein-complex assay.
Test [12] concerns the target Epidermal growth factor receptor (Homo sapiens) (UniProt P00533). Description: Inhibition of human EGFR using poly(Glu, Tyr) 4:1 as substrate in presence of [gamma-33P]ATP at 1 uM after 40 mins by scintillation counter method.
Test [13] has as its target PI3K p110 beta/p85 alpha (Homo sapiens) (UniProt P27986+P42338). Briefly: Inhibition of human PI3K p110beta/pI3K p85alpha at 1 uM using PIP2 as substrate in presence of biotinylated PIP3 and ATP and measured after 30 mins by HTRF method. Format: protein-complex assay.
In test [14] the target is T3, Inhibitor of nuclear factor kappa-B kinase subunit beta (Homo sapiens) (UniProt O14920).
T3 sequence (whole entry): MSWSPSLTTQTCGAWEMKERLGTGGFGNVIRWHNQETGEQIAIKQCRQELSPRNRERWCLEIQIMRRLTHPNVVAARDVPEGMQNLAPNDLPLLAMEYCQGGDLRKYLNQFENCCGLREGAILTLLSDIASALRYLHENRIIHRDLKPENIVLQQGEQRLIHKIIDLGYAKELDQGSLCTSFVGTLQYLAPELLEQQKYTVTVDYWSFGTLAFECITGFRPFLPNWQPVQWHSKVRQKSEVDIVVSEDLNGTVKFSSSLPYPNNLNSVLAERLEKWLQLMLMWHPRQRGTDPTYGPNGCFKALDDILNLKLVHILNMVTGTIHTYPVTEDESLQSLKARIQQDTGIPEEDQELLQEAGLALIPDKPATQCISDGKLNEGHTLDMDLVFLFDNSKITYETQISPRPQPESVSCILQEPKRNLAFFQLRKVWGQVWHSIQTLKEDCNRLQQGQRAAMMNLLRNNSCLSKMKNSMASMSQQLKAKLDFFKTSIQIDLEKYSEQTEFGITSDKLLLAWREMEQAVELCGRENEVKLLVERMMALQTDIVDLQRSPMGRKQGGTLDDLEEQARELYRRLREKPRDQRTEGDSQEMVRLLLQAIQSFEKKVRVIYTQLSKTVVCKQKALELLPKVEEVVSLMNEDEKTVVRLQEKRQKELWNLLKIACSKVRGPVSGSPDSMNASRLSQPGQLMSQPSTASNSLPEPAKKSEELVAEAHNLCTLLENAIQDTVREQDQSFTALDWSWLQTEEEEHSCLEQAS
Briefly: Inhibition of human IKKbeta using KKKKERLLDDRHDSGLDSMKDEE as substrate in presence of [gamma-33P]ATP at 1 uM after 40 mins by scintillation counter method.

In test [15] the target is Dual specificity protein kinase CLK3 (Homo sapiens, UniProt P49761). Description: Inhibition of human CLK3 using ERMRPRKRQGSVRRRV as substrate in presence of [gamma-33P]ATP after 40 mins by scintillation counter method.
For test [16], the target named is Macrophage colony-stimulating factor 1 receptor (Homo sapiens) (UniProt P07333). Briefly: Inhibition of human Fms using KKKSPGEYVNIEFG as substrate in presence of [gamma-33P]ATP at 1 uM after 40 mins by scintillation counter method.

Mitogen-activated protein kinase 9 (Homo sapiens), sequence (P45984 whole entry, looked up): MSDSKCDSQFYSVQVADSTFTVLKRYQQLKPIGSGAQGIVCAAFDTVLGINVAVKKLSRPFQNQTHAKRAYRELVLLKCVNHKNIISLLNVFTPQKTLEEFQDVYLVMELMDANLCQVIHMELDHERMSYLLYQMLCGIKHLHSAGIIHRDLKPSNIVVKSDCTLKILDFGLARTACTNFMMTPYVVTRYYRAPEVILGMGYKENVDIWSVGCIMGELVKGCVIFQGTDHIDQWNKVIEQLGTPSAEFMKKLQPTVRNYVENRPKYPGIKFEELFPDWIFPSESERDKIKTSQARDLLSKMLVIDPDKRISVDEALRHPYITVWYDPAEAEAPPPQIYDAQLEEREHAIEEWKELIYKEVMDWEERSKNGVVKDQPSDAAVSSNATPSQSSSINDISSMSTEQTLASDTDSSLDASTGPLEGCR
Serine/threonine-protein kinase B-raf (Homo sapiens), sequence (P15056 whole entry): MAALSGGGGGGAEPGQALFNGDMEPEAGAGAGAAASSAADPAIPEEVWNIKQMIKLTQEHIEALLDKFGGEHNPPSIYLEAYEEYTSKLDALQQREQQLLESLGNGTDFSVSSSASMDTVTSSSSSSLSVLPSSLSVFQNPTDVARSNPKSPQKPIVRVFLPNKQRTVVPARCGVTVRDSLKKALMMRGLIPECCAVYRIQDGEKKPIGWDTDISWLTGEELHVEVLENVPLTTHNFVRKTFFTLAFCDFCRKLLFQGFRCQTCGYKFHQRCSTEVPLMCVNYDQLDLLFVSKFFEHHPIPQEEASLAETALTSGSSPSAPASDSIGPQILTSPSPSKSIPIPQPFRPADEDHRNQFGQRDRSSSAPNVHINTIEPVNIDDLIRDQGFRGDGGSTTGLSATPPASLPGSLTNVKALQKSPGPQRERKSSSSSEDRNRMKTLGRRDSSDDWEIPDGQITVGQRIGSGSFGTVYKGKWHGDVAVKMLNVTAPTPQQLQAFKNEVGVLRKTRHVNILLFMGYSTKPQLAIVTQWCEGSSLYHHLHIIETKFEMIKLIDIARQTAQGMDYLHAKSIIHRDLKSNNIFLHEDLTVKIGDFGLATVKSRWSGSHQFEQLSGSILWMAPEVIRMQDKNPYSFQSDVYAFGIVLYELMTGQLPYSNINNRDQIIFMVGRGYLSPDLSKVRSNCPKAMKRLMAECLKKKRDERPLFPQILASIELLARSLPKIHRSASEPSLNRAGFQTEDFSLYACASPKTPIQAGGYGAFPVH
Receptor-type tyrosine-protein kinase FLT3 (Homo sapiens), sequence (P36888 whole entry): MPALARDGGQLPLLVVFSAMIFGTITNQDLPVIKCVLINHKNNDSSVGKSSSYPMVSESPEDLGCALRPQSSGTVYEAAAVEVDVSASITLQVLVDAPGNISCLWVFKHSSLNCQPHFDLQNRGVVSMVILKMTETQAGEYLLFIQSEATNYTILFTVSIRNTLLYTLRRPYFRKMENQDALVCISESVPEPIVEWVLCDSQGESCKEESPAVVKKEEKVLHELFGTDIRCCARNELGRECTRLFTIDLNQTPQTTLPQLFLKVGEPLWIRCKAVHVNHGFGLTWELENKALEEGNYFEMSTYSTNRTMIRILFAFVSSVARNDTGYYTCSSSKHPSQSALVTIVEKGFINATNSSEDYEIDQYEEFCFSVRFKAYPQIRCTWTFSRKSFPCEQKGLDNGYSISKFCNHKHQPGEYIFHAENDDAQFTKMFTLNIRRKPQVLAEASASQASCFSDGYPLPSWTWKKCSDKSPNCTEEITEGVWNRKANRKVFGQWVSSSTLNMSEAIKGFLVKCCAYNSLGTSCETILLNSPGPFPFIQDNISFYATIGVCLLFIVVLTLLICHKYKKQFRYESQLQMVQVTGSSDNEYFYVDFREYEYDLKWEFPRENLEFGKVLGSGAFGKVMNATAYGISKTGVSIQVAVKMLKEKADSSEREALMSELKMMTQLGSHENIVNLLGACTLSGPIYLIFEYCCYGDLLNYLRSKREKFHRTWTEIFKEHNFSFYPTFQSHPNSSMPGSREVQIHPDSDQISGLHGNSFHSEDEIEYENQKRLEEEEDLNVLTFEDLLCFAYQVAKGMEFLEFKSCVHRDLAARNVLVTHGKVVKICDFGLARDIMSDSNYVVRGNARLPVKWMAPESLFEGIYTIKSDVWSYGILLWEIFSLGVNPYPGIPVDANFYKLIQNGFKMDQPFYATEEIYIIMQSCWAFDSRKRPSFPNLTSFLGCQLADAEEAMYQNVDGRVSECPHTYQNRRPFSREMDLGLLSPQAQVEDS
ALK tyrosine kinase receptor (Homo sapiens), sequence (Q9UM73 19-1620 limits assumed): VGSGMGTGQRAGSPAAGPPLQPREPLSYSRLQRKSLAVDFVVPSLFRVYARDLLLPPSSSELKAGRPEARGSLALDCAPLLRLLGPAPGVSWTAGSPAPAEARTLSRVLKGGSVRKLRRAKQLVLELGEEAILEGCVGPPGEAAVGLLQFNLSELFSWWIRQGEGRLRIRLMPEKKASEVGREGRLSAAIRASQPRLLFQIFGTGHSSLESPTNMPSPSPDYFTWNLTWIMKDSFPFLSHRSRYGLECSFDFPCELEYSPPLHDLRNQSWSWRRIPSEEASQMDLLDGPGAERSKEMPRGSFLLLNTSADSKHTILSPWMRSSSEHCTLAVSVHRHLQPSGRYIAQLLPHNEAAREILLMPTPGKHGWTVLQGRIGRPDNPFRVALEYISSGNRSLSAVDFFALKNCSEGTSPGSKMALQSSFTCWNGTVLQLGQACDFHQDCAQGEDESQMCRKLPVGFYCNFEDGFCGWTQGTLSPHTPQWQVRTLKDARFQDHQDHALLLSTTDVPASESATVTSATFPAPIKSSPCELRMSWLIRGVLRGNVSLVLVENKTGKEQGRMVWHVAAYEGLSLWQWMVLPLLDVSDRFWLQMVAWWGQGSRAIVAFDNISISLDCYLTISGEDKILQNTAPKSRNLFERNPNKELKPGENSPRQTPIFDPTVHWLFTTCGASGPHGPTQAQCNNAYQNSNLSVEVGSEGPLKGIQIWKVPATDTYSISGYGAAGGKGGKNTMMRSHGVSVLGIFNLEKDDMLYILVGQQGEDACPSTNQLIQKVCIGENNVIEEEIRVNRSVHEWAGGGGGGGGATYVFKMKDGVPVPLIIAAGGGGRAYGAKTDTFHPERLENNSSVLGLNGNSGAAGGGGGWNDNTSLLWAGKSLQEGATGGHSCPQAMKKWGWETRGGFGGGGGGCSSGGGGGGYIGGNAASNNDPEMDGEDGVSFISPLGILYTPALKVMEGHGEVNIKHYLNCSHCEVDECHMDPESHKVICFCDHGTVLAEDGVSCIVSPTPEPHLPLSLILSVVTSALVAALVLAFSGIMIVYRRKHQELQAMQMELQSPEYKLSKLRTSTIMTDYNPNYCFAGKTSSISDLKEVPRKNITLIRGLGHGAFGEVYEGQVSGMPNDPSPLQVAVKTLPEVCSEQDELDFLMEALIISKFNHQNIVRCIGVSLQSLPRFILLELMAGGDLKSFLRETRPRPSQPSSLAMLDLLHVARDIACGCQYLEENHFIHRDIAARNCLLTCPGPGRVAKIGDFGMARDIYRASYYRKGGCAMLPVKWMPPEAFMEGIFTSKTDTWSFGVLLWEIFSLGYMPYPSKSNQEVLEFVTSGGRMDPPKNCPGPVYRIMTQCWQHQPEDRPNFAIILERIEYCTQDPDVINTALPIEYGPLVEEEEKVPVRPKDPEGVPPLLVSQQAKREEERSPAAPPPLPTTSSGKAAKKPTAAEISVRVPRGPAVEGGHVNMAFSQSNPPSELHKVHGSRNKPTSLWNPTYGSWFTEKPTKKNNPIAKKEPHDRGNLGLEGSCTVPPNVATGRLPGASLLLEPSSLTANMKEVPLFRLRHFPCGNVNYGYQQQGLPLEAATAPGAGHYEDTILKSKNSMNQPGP
Receptor tyrosine-protein kinase erbB-2 (Homo sapiens), sequence (P04626 whole entry): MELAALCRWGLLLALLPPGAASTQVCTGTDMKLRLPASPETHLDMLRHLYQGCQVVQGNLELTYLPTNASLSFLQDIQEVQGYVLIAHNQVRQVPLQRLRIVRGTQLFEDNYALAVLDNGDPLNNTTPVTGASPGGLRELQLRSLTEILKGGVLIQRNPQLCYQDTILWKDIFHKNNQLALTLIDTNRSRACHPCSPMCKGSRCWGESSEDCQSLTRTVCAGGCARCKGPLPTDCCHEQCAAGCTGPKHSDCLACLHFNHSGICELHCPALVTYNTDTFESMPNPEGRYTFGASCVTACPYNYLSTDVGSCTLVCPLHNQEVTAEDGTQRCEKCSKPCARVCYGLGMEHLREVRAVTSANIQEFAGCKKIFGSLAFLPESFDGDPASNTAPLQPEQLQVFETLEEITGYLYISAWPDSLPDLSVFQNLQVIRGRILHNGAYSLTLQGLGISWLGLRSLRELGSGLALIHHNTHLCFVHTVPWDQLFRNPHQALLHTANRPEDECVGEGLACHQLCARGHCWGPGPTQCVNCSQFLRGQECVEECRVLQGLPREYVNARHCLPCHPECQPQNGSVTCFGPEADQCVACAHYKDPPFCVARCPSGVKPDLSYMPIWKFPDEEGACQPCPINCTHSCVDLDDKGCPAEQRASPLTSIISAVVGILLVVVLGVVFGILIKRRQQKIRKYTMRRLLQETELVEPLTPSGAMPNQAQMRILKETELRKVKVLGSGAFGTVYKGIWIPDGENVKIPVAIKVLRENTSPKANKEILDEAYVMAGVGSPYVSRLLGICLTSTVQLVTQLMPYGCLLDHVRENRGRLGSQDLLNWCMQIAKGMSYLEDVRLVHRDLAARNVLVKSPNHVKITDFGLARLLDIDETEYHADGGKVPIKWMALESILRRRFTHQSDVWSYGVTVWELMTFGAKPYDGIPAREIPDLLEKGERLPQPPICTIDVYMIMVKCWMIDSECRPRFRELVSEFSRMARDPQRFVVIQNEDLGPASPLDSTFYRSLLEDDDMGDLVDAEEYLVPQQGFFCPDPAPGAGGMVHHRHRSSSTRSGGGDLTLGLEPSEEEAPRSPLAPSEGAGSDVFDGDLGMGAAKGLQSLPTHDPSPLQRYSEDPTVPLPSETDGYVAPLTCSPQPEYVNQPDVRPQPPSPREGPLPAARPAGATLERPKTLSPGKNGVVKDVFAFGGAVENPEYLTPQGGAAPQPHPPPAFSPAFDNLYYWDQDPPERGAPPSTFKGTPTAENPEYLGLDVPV

As to `CC(C)n1cnc2c(Nc3cccc(Cl)c3)nc(N[C@@H]3CCCC[C@@H]3N)nc21`, the inhibition was 5% in test [1]; 4% in test [2]; -2% in test [3]; 21% in test [4]; 0% in [6]; 90% in test [9]. Further, the inhibition in test [10] is -1%; in [11] it was -5%; in test [12] it was 3%; in test [13] it was 4%; in test [14], -5%. For the same molecule, the IC50 at CDK6/cyclin D3 is greater than 1 µM; in test [5], 0.674 µM; at CDK4/Cyclin D3, 0.541 µM; in test [15], greater than 1 µM. Besides, the EC50 in test [7] was 4.3 µM. In test [8], the fold change (FC) was greater than 3.
For `CC(C)n1cnc2c(Nc3cccc(Cl)c3)nc(N[C@H]3CCCC[C@@H]3N)nc21`, the inhibition was determined as 2% in [1]; 1% in [2]; 7% in test [3]; 10% in test [4]; 2% in test [6]; 19% in test [9]. In addition, the inhibition in test [10] is 3%; in test [11] it was 4%; in test [12] it was -6%; in test [16], -1%; in [13] it was 5%; in test [14], -2%. The IC50 (on CDK6/cyclin D3; in test [5]; on CDK4/Cyclin D3; in [15]) was greater than 1 µM throughout. For the same molecule, in test [7], the concentration giving a half-maximal response (EC50) is 11.7 µM. Moreover, the fold change (FC) in [8] is greater than 3.
For the molecule `CC(C)n1cnc2c(Nc3cc(N)cc(Cl)c3)nc(N[C@@H]3CCCC[C@@H]3N)nc21` (racemic), the inhibition was 1% in test [1]; -6% in test [2]; 10% in [3]; 5% in test [4]; 3% in [6]; 93% in [9]. Moreover, the inhibition is -6% in [10]; 13% in [11]; -1% in test [12]; 9% in [16]; 4% in test [13]; -9% in [14]. Moreover, the fold change (FC) in test [8] was greater than 3.

What is called inhibition is the relative decrease from the control value, in per cent. As usually defined, the IC50 is the point on the concentration scale where inhibition reaches its midpoint. As usually defined, the EC50 is the concentration giving half of the maximal effect.
